The target of the test is T1, human TLR8 (Homo sapiens, UniProt Q9NR97).
T1 construct: host or cells: HEK-Blue hTLR8 (HEK293)
T1 sequence (Q9NR97 27-1041): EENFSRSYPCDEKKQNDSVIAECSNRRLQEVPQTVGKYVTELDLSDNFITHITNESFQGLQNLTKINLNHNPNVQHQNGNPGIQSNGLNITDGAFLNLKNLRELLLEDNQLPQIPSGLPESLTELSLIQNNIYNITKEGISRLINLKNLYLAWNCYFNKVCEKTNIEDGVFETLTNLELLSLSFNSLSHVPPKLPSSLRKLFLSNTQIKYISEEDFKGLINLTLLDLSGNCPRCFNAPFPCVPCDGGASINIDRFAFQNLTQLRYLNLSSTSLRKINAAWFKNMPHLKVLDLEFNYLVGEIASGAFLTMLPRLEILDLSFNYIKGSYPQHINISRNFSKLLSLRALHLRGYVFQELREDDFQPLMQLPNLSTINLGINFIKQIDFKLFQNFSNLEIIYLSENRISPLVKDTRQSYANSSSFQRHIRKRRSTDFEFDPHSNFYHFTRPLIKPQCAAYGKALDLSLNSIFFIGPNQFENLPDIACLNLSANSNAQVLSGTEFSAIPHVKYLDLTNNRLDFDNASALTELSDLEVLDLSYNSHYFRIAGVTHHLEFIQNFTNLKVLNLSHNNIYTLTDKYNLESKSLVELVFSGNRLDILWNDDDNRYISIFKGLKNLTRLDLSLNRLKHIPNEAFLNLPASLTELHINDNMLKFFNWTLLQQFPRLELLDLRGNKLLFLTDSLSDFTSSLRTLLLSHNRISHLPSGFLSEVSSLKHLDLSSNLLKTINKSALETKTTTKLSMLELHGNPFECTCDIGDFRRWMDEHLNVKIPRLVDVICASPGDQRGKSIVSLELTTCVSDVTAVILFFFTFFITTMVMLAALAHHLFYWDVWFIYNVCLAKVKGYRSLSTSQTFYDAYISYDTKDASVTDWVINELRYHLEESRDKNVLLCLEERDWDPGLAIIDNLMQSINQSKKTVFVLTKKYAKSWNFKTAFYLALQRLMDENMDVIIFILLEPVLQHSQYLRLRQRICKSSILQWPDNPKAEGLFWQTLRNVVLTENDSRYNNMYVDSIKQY
Nature of the test: Inhibitory effect on human TLR8 pathway (HEK-Blue hTLR8 SEAP reporter). Type of test: cell-based. To be noted: HEK-Blue hTLR8 cells, 6 μM resiquimod, 20 h, SEAP OD620. The method, then: • 1. HEK-Blue™ hTLR8 cell (Invivogen) • 2. Resiquimod (R848, Invivogen) • 3. Alkaline phosphatase detection medium (Quanti-Blue Detection, Invivogen) • 4. Blasticidin (Invivogen) • 5. Zeocin (Invivogen) • 6. Normocin (Invivogen) • 7. DMEM/HIGH Glucose (GE Healthcare) • 8. Fetal bovine serum (FBS, Gibco) • 9. Phosphate-buffered saline (Shanghai BasalMedia Technologies Co., Ltd.) • 10. Sterile purified water (made in-house by Shanghai Hengrui) • 11. 15 mL centrifuge tube (Corning) • 12. 96-well formulating plate (Corning) • 13. 96-well flat-bottom cell culture plate (Corning) • 14. Constant-temperature cell incubator (Thermo scientific) • 15. Constant-temperature incubator (Shanghai Yiheng Scientific Instruments Co., Ltd.) • 16. PHERAstar FS microplate reader (BMG Labtech)
HEK-Blue™ hTLR8 cells were purchased from Invivogen. These cells are HEK293 cells transfected with the human Toll-like receptor 8 (TLR8) gene and the secreted alkaline phosphatase reporter gene (SEAP). The alkaline phosphatase reporter gene (SEAP) is under the regulation of the IFN—P minimal promoter comprising 5 NF-kB and AP-1 binding sites. Upon activation of TLR8 with an agonist, SEAP secretion is induced via downstream NF-kB and AP-1. After addition of an antagonist compound, the pathway described above is inhibited, and SEAP secretion is reduced. The activity of the compounds for the TLR8 pathway was evaluated by measuring OD620 through the SEAP substrate.
20 mM test compounds dissolved in 100% DMSO were serially diluted with 100% DMSO to 2000, 400, 80, 16, 3.2, 0.64, 0.128, 0.0256 μM, with blank wells containing 100% DMSO. The compounds and 100% DMSO were then 20-fold diluted in DMEM/HIGH glucose media containing 10% inactivated FBS (complete media, the same applies below). Resiquimod was diluted to 60 μM with sterile water. The 60 μM resiquimod dilution in sterile water was added to a 96-well cell culture plate at 20 μL/well. The above compounds diluted in complete media and 100% DMSO were then added at 20 μL/well to wells containing resiquimod, 20 μL of sterile water and 20 μL of 100% DMSO diluted in the complete medium were added to negative control wells.
HEK-Blue™ hTLR8 cells were cultured in a DMEM/HIGH glucose medium containing 10% inactivated FBS, 100 μg/mL Normocin, 10 μg/mL blasticidin, and 100 μg/mL Zeocin. Cells that were in a good state of growth and had grown to 70%-8% were collected. The growth medium was discarded, 5-10 mL of PBS pre-heated at 37° C. was added to wash the cells once, and 2-5 mL of pre-heated PBS was added. The cells were cultured at 37° C. for 1-2 min, dispersed by pipetting, transferred to a 15 mL centrifuge tube, and counted, and the cell density was adjusted to 4.8×10^5/mL with the complete medium. After density adjustment, 160 μL of the resulting cell suspension was added to the above 96-well cell culture plate to a final number of cells per well of 76,500/well. The final concentration of resiquimod was 6 μM, and the final concentrations of the test compounds were 10,000, 2000, 400, 80, 16, 3.2, 0.64, and 0.128 nM. The cells were cultured in a 37° C., 5% CO2 incubator for 20 h. Then 20 μL of the supernatant was added to 180 μL of the prepared alkaline phosphatase detection medium and incubated in the dark in a constant-temperature incubator at 37° C. for 120 min. The OD620 absorbance readings were taken on a microplate reader. The inhibition rate was calculated using the following formula: […]
Inhibition curves were plotted using Graphpad Prism software according to the concentrations of the compounds and the corresponding inhibition rates, and the concentrations of the compounds at which the inhibition rate reached 50%, i.e., IC50 values, were calculated and are shown in Table 2.

This passage reports IC50 results from patent publication US20240360133A1, “FUSED TRICYCLIC COMPOUND, PREPARATION METHOD THEREFOR AND APPLICATION THEREOF IN MEDICINE” (Jiangsu Hengrui Pharmaceuticals Co., Ltd., priority 2020, published 2024).

Usually IC50 stands for the midpoint of a concentration-inhibition curve. Low readings indicate greater potency, high ones weaker potency.

`Cc1cc(-c2[nH]c3cc4c(nc3c2C(C)C)CNCC4)cc(C)n1` [Example 1, 2-(2,6-Dimethylpyridin-4-yl)-3-isopropyl-5,6,7,8-tetrahydro-1H-pyrrolo[3,2-b][1,7]naphthyridine] gave an IC50 of 0.8 nM.

For `Cc1cc(-c2[nH]c3cc4c(nc3c2C(C)C)CN(C(C)C)CC4)cc(C)n1` [Example 2, 2-(2,6-Dimethylpyridin-4-yl)-3,6-diisopropyl-5,6,7,8-tetrahydro-1H-pyrrolo[3,2-b][1,7]naphthyridine], the IC50 was 30.4 nM. Turning to `Cc1cc(-c2[nH]c3cc4c(nc3c2C(C)C)CN(CCc2ccc(N3CCNCC3)nc2)CC4)cc(C)n1` [Example 4, 2-(2,6-Dimethylpyridin-4-yl)-3-isopropyl-6-(2-(6-(piperazin-4-yl)pyridin-3-yl)ethyl)-5,6,7,8-tetrahydro-1H-pyrrolo[3,2-b][1,7]naphthyridine], the half-maximal inhibitory concentration (IC50) was 1.8 nM. To `Cc1cc(-c2[nH]c3cc4c(nc3c2C(C)C)CN(Cc2ccc(N3CCNCC3)cn2)CC4)cc(C)n1` [Example 5, 2-(2,6-Dimethylpyridin-4-yl)-3-isopropyl-6-((5-(piperazin-1-yl)pyridin-2-yl)methyl)-5,6,7,8-tetrahydro-1H-pyrrolo[3,2-b][1,7]naphthyridine] belongs 2.5 nM. As to `Cc1cc(-c2[nH]c3cc4c(nc3c2C(C)C)CN(CC23CCC(N)(CC2)CC3)CC4)cc(C)n1` [Example 7, 4-((2-(2,6-Dimethylpyridin-4-yl)-3-isopropyl-1,5,7,8-tetrahydro-6H-pyrrolo[3,2-b][1,7]naphthyridin-6-yl)methyl)bicyclo[2.2.2]octyl-1-amine], inhibition was half-maximal at 2.2 nM (IC50). As for `Cc1cc(-c2[nH]c3cc4c(nc3c2C(C)C)CN(CC(N)=O)CC4)cc(C)n1` [Example 8, 2-(2-(2,6-Dimethylpyridin-4-yl)-3-isopropyl-1,5,7,8-tetrahydro-6H-pyrrolo[3,2-b][1,7]naphthyridin-6-yl)acetamide], the figure is 18.8 nM; as for `Cc1c(-c2[nH]c3cc4c(nc3c2C(C)C)CNCC4)cn2ncnc2c1C` [Example 9, 2-(7,8-Dimethyl-[1,2,4]triazolo[1,5-a]pyridin-6-yl)-3-isopropyl-5,6,7,8-tetrahydro-1H-pyrrolo[3,2-b][1,7]naphthyridine], 0.6 nM; as for `Cc1c(-c2[nH]c3cc4c(nc3c2C(C)C)CN(CC(N)=O)CC4)cn2ncnc2c1C` [Example 10, 2-(2-(7,8-Dimethyl-[1,2,4]triazolo[1,5-a]pyridin-6-yl)-3-isopropyl-1,5,7,8-tetrahydro-6H-pyrrolo[3,2-b][1,7]naphthyridin-6-yl)acetamide], 8.2 nM.
